Measurements reported in patent US20060263895A1, “Method for monitoring the stereoselectivity and relative rate of organic chemical reactions” (priority 2005, published 2006).

Legend:
[1] = HKR of (±)-propylene oxide under standard neat 'Jacobsen conditions' (NMR conversion, chiral HPLC ee); conditions: for NMR conv. (time): 3 h; for NMR conv. (time) / % ee (HPLC): loading 0.25 mol %; for % ee (HPLC) / % ee of the 1,2-propanediol product, as observed by chiral HPLC (lower number): + = (S), − = (R); for % ee of the 1,2-propanediol product, as observed by chiral HPLC (lower number): neat propylene oxide, 0.55 equiv. H2O, 0.25 mol % catalyst, 3 h reaction time
Method in brief: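 Co(III)-salen catalyst (0.25 mol %) with neat (±)-propylene oxide and water (0.55 equiv.), added at 0° C., then stirred at room temperature, usually 3 h (longer if <5% conversion). Conversion by 1H NMR; diol isolated, derivatized to bis(p-bromobenzoate), ee by chiral HPLC.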

[2] = Double cuvette-ISES (in situ enzymatic screening) of Co(III)-salen mediated HKR of (±)-propylene oxide
Method in brief: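 Co(III)-salen catalysts (0.25 mol %) in CHCl3 with (±)-propylene oxide (7.2 M in organic layer), overlaid with aqueous reporting layers in 50 mM sodium pyrophosphate, final pH 8.6. Reporters: 0.35 U HLADH/7.2 mM NAD+ ((S)-diol) or 0.35 U TBADH/2.2 mM NADP+ ((R)-diol). A340 increase gives enantioselectivity and relative rate estimates.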

[3] = [total 1,2-propanediol] in aqueous ISES layer by 1H NMR
Procedure: The concentration of 1,2-propanediol in the aqueous layer was estimated under typical ISES conditions using 1H NMR spectroscopy. The bilayer was prepared as usual for double cuvette-ISES (Section V), but for the substitution of D2O for H2O in the buffer, and the elimination of the dehydrogenase enzymes. After 15 min, the aqueous layer (300 μL of 500 μL total) was withdrawn and mixed with a fresh solution of imidazole of known concentration (also 300 μL in D2O), as an internal concentration standard. Accumulation of the 1H NMR spectrum, followed by integration and quantitation, provided an experimental measure of [total diol] in the aqueous reporting layer at t=15 minutes for the catalyst under investigation. The observed diol concentrations for ten catalysts examined in this way are collected in Table S6, below. These have been normalized to the value for the catalyst derived from salen 3b (arbitrarily assigned a rate of 1.0).

[4] = Catalyst performance in the ISES cuvette (biphasic HKR), ee of isolated diol by chiral HPLC; conditions: diol isolated from merged ISES cuvettes
Procedure: For several catalysts, control experiments were run to assess whether running the HKR under biphasic conditions influences the enantioselectivity of these Co(III)-salen HKR catalysts. In such cases, parallel duplicate ‘double-cuvette’ runs were chosen (i.e. two HLADH cuvettes and two TBADH cuvettes for a single catalyst). Following the ISES runs, the contents of all four reporting cuvettes were merged. Unreacted epoxide was rapidly removed under Ar stream. Following dilution with CH2Cl2 (˜50 mL), sodium sulfate was added to adsorb remaining water. The resulting organic solution was filtered and the filter cake washed with CH2Cl2 (2×20 mL). Following evaporation of the solvent, the crude diols were derivatized directly with p-bromobenzoyl imidazole to yield the 1,2-propanediol bis(pbromobenzoate) esters, which were then purified by silica gel chromatography to estimate diol yields. Enantiomeric excesses were determined using chiral HPLC, as before. […] Indeed, the ee's seen from diol isolated directly out of the cuvette generally appear slightly higher than those obtained under ‘Jacobsen conditions,’ probably reflecting the shorter reaction times employed in the ISES experiment.

HLADH = target: T1, HLADH (Equus caballus, UniProt P00327); experiment: HLADH oxidation of 1,2-hexenediol; format: biochemical, horse
T1 construct: purchased; host or cells: equine liver
Description: (§1) The following examples illustrate the invention with respect to an in situ enzymatic screening (ISES) method to predict the enantioselectivity of chiral catalysts for the hydrolytic kinetic resolution (HKR) of (±) hexene oxide. Above, it was shown that the method of the invention may be employed to predict the enantioselectivity and relative rate of a catalyst library for HKR of (±)-propylene oxide using horse liver alcohol dehydrogenase (HLADH) and Thermoalaerobium brockii alcohol dehydrogenase (TBADH).

[5] = target: T2, Lactobacillus kefir alcohol dehydrogenase (LKADH) (Lentilactobacillus kefiri, UniProt Q6WVP7); experiment: LKADH oxidation of 1,2-hexenediol; format: biochemical
T2 sequence (Q6WVP7 1-252): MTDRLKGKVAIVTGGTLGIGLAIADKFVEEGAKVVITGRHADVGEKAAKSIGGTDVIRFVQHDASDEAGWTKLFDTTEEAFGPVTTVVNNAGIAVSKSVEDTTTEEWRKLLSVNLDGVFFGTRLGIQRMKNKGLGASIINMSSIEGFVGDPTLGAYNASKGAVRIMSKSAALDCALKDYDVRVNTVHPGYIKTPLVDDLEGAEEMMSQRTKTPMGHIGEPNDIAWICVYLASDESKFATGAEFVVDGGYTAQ
Description: as §1

[6] = target: T3, alcohol dehydrogenase from Thermoanaerobium brockii (TBADH) (Thermoanaerobacter brockii, UniProt P14941); conditions: read-out: reported Km value for NADP+ with TBADH; cited from earlier work
T3 construct: purchased
T3 sequence (P14941 1-352): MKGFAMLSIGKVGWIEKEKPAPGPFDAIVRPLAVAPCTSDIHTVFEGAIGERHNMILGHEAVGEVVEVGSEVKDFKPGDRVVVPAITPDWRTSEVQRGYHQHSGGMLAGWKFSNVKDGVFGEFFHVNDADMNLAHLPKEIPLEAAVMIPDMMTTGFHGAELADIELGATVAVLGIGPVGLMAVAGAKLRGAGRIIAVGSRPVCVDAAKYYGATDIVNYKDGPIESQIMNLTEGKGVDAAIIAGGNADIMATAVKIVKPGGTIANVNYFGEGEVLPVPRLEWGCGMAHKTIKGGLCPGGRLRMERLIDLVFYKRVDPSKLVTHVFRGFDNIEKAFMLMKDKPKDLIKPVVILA

[7] = HKR of (±)-hexene oxide under neat conditions; conditions: in 30 min, 2.0 mol % catalyst, 25° C.
Procedure: Co(III)-salen (acetate) catalysts were evaluated for HKR of (±)-hexene oxide, under neat conditions, similar to those described by Jacobsen and co-workers (Schaus, S. E.; Brandes, B. D.; Larrow, J. F.; Tokunaga, M.; Hansen, K. B.; Gould, A. E.; Furrow, M. E.; Jacobsen, E. N. J. Am. Chem. Soc. 2002, 124, 1307-1315). Reactions were stopped after 0.5 h, to obtain the enantiopurity of the 1,2-hexenediol produced at relatively early reaction times, for comparison with biphasic ISES predictions.
A typical procedure follows: To the Co(III)-salen catalyst derived from 1e (16.6 mg, 23.2 μmol, 2.0 mol %) at rt was added (±)-hexene oxide (116 mg, 1.16 mmols). The mixture was cooled to 0° C. Then water (11.4 μL, 0.64 mmols, 0.55 equiv.) was added and the flask was capped tightly and stirred 25° C. for 30 min. The progress of the reaction was estimated by ^1H NMR, the reaction mixture was cooled to 0° C., an aliquot was then withdrawn and dissolved in CDCl3 at 0° C. bath. After distilling over the unreacted epoxide, the diol product was collected, and then itself distilled again by Kugelrohr. When the reaction conversion was more than 50% in 30 min, 15 min reaction time was used (for catalyst 1e) to get the product diol.
To determine ee, the isolated diol was derivatized using p-bromobenzoyl imidazole (2.2 equiv.) in THF in the presence of NaH (4 equiv.) at rt for 5 min. […]

[8] = reaction stopped at the time given (mostly 3 h)
[9] = bilayer of pH 8.6 buffer over 7.2 M epoxide in CHCl3, 0.25 mol % catalyst, 15-35 min, + = (S), − = (R)

T1 sequence (P00327 whole entry): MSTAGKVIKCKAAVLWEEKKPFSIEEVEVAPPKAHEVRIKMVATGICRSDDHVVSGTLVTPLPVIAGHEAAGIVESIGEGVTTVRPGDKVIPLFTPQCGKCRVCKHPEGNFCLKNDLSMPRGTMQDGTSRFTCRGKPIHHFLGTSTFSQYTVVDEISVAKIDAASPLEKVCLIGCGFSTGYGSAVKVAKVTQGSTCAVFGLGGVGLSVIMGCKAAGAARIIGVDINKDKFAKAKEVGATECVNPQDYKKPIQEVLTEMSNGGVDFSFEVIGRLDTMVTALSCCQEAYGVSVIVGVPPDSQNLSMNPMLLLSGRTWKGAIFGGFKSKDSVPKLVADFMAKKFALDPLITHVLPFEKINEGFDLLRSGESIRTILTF

Molecule	NMR conv. (time) [1]	% ee (HPLC) [1, 8]	% ee measured neat 'Jacobsen conditions' [1]	% ee of the 1,2-propanediol product, as observed by chiral HPLC (lower number) [1]	% ee predicted double cuvet-ISES ([2]; bilayer)	% ee of the 1,2-propanediol product, as predicted by double-cuvette ISES (upper number) [2, 9]	% ee measured biphasic conds. [4]	further results
N,N′-Bis(3′,5′-di-tert-butylsalicylidene[1R-(1α,2α,5α)]-2-amino-7,7-dimethyl-2-bicyclo[3.3.1]heptane-ethanamine [Salen 1a]	12 (3 h) %	+72 (S) % ee	72 % ee	+72 % ee	56 % ee	+56 % ee	87 % ee	[diol] (mM) @ 15 min ([3]; aqueous ISES layer, 1H NMR, t = 15 min): 19 mM; Norm. ([3]; normalized to the catalyst derived from salen 3b (rate 1.0)): 0.20
CCCCC(O)CO (stereo not drawn)								selectivity of HLADH for the oxidation of 1,2-hexenediol (HLADH): modest (S)-selectivity; selectivity of LKADH for the oxidation of 1,2-hexenediol [5]: high (S)-selectivity
NC(=O)c1ccc[n+]([C@@H]2O[C@H](COP(=O)([O-])OP(=O)(O)OC[C@H]3O[C@@H](n4cnc5c(N)ncnc54)[C@H](OP(=O)(O)O)[C@@H]3O)[C@@H](O)[C@H]2O)c1 [NADP+]								Km [6]: 13 µM
CC(C)(C)c1cc(C=NC[C@H](Cc2cccc3ccccc23)N=Cc2cc(C(C)(C)C)cc(C(C)(C)C)c2O)c(O)c(C(C)(C)C)c1 [Salen 4a, N,N′-Bis(3′,5′-di-tert-butylsalicylidene)-(1S)-(α-naphthylmethyl)-1,2-ethylenediamine]	35 (3 h) %	+76 (S) % ee	76 % ee	+76 % ee	77 % ee	+77 % ee	82 % ee	
N,N′-Bis(3′,5′-diiodosalicylidene)-[1R-(1α,2α,5α)]-2-amino-7,7-dimethyl-2-bicyclo[3.3.1]heptaneethanamine [Salen 1e]		+28 (S) % ee		+28 % ee				% ee of the 1,2-propanediol product, as predicted by double-cuvette ISES (upper number) ([2]; catalyst tested at 0.05 mol %, bilayer): +47 % ee; reaction conversion [7]: more than 50%
CO[C@H]1[C@@H]2OC(C)(C)O[C@@H]2COC1(CN=Cc1cc(C(C)(C)C)cc(C(C)(C)C)c1O)N=Cc1cc(C(C)(C)C)cc(C(C)(C)C)c1O (stereo partly drawn) [Salen 7a, N,N′-Bis(3′,5′-di-tert-butylsalicylidene)-3-O-methyl-4,5-O-isopropylidene-1,2-dideoxy-Dfructopyranosyl-1,2-diamine]			−59 % ee		−33 % ee		−55 % ee	NMR conv. (time) ([1]; listed as 7a*): 7 (3 h) %; % ee (HPLC) ([1]; reaction stopped at the time printed in the row (mostly 3 h), listed as 7a*): −59 (R) % ee; % ee of the 1,2-propanediol product, as observed by chiral HPLC (lower number) ([1]; listed as 7a*): −59 % ee; % ee of the 1,2-propanediol product, as predicted by double-cuvette ISES (upper number) ([2]; bilayer of pH 8.6 buffer over 7.2 M epoxide in CHCl3, 0.25 mol % catalyst, 15-35 min, + = (S), − = (R), listed as 7a*): −33 % ee
